Reference: ChEMBL document CHEMBL1201862, “PubChem BioAssay data set” (2004)
Values joined by “and” are separate entries in the source; they are usually repeats but may differ in a detail not shown here. Equal entries are not always repeated.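 Interpolation was linear, between the two tested concentrations surrounding the appropriate level; five concentrations were tested over 48 hours in 96-well plates. The concentration for 50% growth inhibition is given as GI50.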 Active and inactive are the calls of the source. No stated cut-off is given here; in the data, active = GI50 up to about 1.1 µM and inactive = higher.

Columns and labels:
Assay in all cases: DTP human tumour cell line panel, 48 h
786-0 = system: 786-0
A498 = system: A498
A549 = system: A549
ACHN = system: ACHN
DLD-1 = system: DLD-1
DMS-273 = system: DMS-273
EKVX = system: EKVX
HCC 2998 = system: HCC 2998
HCT-15 = system: HCT-15
HL-60 = system: HL-60
HOP-18 = system: HOP-18
HOP-62 = system: HOP-62
HOP-92 = system: HOP-92
IGROV-1 = system: IGROV-1
KM-20L2 = system: KM-20L2
KM12 = system: KM12
LOX IMVI = system: LOX IMVI
M19-MEL = system: M19-MEL
MOLT-4 = system: MOLT-4
NCI-H226 = system: NCI-H226
NCI-H23 = system: NCI-H23
NCI-H460 = system: NCI-H460
NCI/ADR-RES = system: NCI/ADR-RES
OVCAR-5 = system: OVCAR-5
OVCAR-8 = system: OVCAR-8
RXF 393 = system: RXF 393
RXF 631 = system: RXF 631
SF-268 = system: SF-268
SF-295 = system: SF-295
SK-MEL-28 = system: SK-MEL-28
SK-MEL-2 = system: SK-MEL-2
SK-MEL-5 = system: SK-MEL-5
SK-OV-3 = system: SK-OV-3
SNB-75 = system: SNB-75
SW-620 = system: SW-620
UACC-257 = system: UACC-257
CCRF-CEM = system: CCRF-CEM
DMS-114 = system: DMS-114
HCT-116 = system: HCT-116
HT-29 = system: HT-29
K562 = system: K562
LXFL 529 = system: LXFL 529
M14 = system: M14
Malme-3M = system: Malme-3M
NCI-H522 = system: NCI-H522
OVCAR-3 = system: OVCAR-3
OVCAR-4 = system: OVCAR-4
RPMI-8226 = system: RPMI-8226
SF-539 = system: SF-539
SN12C = system: SN12C
SNB-19 = system: SNB-19
SR = system: SR
TK-10 = system: TK-10
U-251 = system: U-251
UACC-62 = system: UACC-62
UO-31 = system: UO-31

In the case of `COC1=C(C)C(=O)C2=C(C1=O)C(CO)N1C(C#N)C3CC4C(C1C2N1CCOC41)N3C` (centres undefined), the GI50 (786-0) is reported as 20 nM (active) and 26.8 nM (active), the GI50 (A498) is reported as 0.146 µM (active) and the GI50 (A549) is reported as 354 nM (active) and 321 nM (active). The GI50 (ACHN) was 64.1 nM (active) and 38.8 nM (active), the GI50 (DLD-1) was 0.00706 µM (active) and the GI50 (DMS-273) was 0.02 µM (active). The GI50 (EKVX) was 314 nM (active) and 305 nM (active), the GI50 (HCC 2998) was 72.4 nM (active) and 60.3 nM (active) and the GI50 (HCT-15) was < 0.01 µM and 0.0144 µM. The GI50 (HL-60) was 0.0133 µM (active), the GI50 (HOP-18) was 0.132 µM (active) and the GI50 (HOP-62) was 270 nM (active) and 166 nM (active). The GI50 (HOP-92) was 24.1 nM (active) and < 16.9 nM (active), the GI50 (IGROV-1) was 45.1 nM (active) and 32.4 nM (active) and the GI50 (KM-20L2) was 0.0617 µM (active). For the same compound, the GI50 (KM12) was 58.8 nM (active) and 80.7 nM (active), the GI50 (LOX IMVI) was 11.6 nM (active) and < 14.1 nM (active) and the GI50 (M19-MEL) was 0.0492 µM (active). For the same compound, the GI50 (MOLT-4) was 0.0128 µM (active), the GI50 (NCI-H226) was 99.3 nM (active) and 57.9 nM (active) and the GI50 (NCI-H23) was 35.2 nM (active) and 39.1 nM (active). The GI50 (NCI-H460) was 90.8 nM (active) and 150 nM (active), the GI50 (NCI/ADR-RES) was 22.6 nM (active) and 31.5 nM (active) and the GI50 (OVCAR-5) was 262 nM (active) and 241 nM (active). For the same compound, the GI50 (OVCAR-8) was 30.3 nM (active) and 19.3 nM (active), the GI50 (RXF 393) was 20.9 nM (active) and 20.6 nM (active) and the GI50 (RXF 631) was 0.167 µM (active). The GI50 (SF-268) was 78.5 nM (active) and 85.9 nM (active), the GI50 (SF-295) was 292 nM (active) and 179 nM (active) and the GI50 (SK-MEL-28) was 51.8 nM (active) and 52 nM (active). The GI50 (SK-MEL-2) was 15.8 nM (active) and 19.4 nM (active), the GI50 (SK-MEL-5) was 50.7 nM (active) and 29.9 nM (active) and the GI50 (SK-OV-3) was 164 nM (active) and 261 nM (active). For the same compound, the GI50 (SNB-75) was 20.6 nM (active) and 39.5 nM (active), the GI50 (SW-620) was < 14.6 nM (active) and 16.4 nM (active) and the GI50 (UACC-257) was 26.2 nM (active) and 27.7 nM (active).

With `N#Cc1c(-c2ccco2)cc(-c2ccc(N)cc2)[nH]c1=O` the GI50 (786-0) was > 100 µM (inactive), the GI50 (A498) was > 100 µM (inactive) and the GI50 (A549) was > 100 µM (inactive). For the same compound, the GI50 (ACHN) was > 100 µM (inactive), the GI50 (CCRF-CEM) was > 100 µM (inactive) and the GI50 (DLD-1) was > 100 µM (inactive). For the same compound, the GI50 (DMS-114) was > 100 µM (inactive), the GI50 (DMS-273) was > 100 µM (inactive) and the GI50 (EKVX) was > 100 µM (inactive). For the same compound, the GI50 (HCC 2998) was > 100 µM (inactive), the GI50 (HCT-116) was > 100 µM (inactive) and the GI50 (HCT-15) was greater than 100 µM. For the same compound, the GI50 (HL-60) was > 100 µM (inactive), the GI50 (HOP-18) was > 100 µM (inactive) and the GI50 (HOP-62) was > 100 µM (inactive). For the same compound, the GI50 (HOP-92) was > 100 µM (inactive), the GI50 (HT-29) was > 100 µM (inactive) and the GI50 (IGROV-1) was > 100 µM (inactive). The GI50 (K562) was > 100 µM (inactive), the GI50 (KM-20L2) was > 100 µM (inactive) and the GI50 (KM12) was > 100 µM (inactive). For the same compound, the GI50 (LOX IMVI) was > 100 µM (inactive), the GI50 (LXFL 529) was > 100 µM (inactive) and the GI50 (M14) was > 100 µM (inactive). For the same compound, the GI50 (MOLT-4) was > 100 µM (inactive), the GI50 (Malme-3M) was > 100 µM (inactive) and the GI50 (NCI-H226) was > 100 µM (inactive). For the same compound, the GI50 (NCI-H23) was > 100 µM (inactive), the GI50 (NCI-H460) was > 100 µM (inactive) and the GI50 (NCI-H522) was > 100 µM (inactive). The GI50 (OVCAR-3) was > 100 µM (inactive), the GI50 (OVCAR-4) was > 100 µM (inactive) and the GI50 (OVCAR-5) was > 100 µM (inactive). For the same compound, the GI50 (OVCAR-8) was > 100 µM (inactive), the GI50 (RPMI-8226) was > 100 µM (inactive) and the GI50 (RXF 393) was > 100 µM (inactive). The GI50 (RXF 631) was > 100 µM (inactive), the GI50 (SF-268) was > 100 µM (inactive) and the GI50 (SF-295) was > 100 µM (inactive). For the same compound, the GI50 (SF-539) was > 100 µM (inactive), the GI50 (SK-MEL-28) was > 100 µM (inactive) and the GI50 (SK-MEL-5) was > 100 µM (inactive). The GI50 (SK-OV-3) was > 100 µM (inactive), the GI50 (SN12C) was > 100 µM (inactive) and the GI50 (SNB-19) was > 100 µM (inactive). The GI50 (SNB-75) was > 100 µM (inactive), the GI50 (SR) was > 100 µM (inactive) and the GI50 (SW-620) was > 100 µM (inactive). For the same compound, the GI50 (TK-10) was > 100 µM (inactive), the GI50 (U-251) was > 100 µM (inactive) and the GI50 (UACC-257) was > 100 µM (inactive). The GI50 (UACC-62) was > 100 µM (inactive) and the GI50 (UO-31) was > 100 µM (inactive).
